From ChEMBL document CHEMBL1201862, “PubChem BioAssay data set” (2004)
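Growth conditions: 96-well plates. Treatment: test compound, 48 hours, 5 concentrations. Analysis: linear interpolation between bracketing concentrations; unreached endpoints set to highest concentration. Here, GI50 denotes the concentration required for 50% inhibition of growth.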 Calls of active or inactive are those of the source. No stated cut-off is given here; in the data, active = GI50 up to about 1.1 µM and inactive = higher.

Tests used:
Assay in all cases: NCI tumour cell line growth inhibition, 48 h
EKVX = system: EKVX
SK-MEL-2 = system: SK-MEL-2
NCI-H460 = system: NCI-H460
TK-10 = system: TK-10
SNB-19 = system: SNB-19
Hs-578T = system: Hs-578T
SK-MEL-28 = system: SK-MEL-28
OVCAR-4 = system: OVCAR-4
OVCAR-5 = system: OVCAR-5
NCI-H522 = system: NCI-H522
A549 = system: A549
IGROV-1 = system: IGROV-1
RPMI-8226 = system: RPMI-8226
MCF7 = system: MCF7
UO-31 = system: UO-31
MDA-MB-231 = system: MDA-MB-231
HCT-116 = system: HCT-116
SNB-75 = system: SNB-75
NCI/ADR-RES = system: NCI/ADR-RES
SR = system: SR

| SMILES | GI50 (EKVX) | GI50 (SK-MEL-2) | GI50 (NCI-H460) | GI50 (TK-10) | GI50 (SNB-19) | GI50 (Hs-578T) | GI50 (SK-MEL-28) | GI50 (OVCAR-4) | GI50 (OVCAR-5) | GI50 (NCI-H522) | GI50 (A549) | GI50 (IGROV-1) | GI50 (RPMI-8226) | GI50 (MCF7) | GI50 (UO-31) | GI50 (MDA-MB-231) | GI50 (HCT-116) | GI50 (SNB-75) | GI50 (NCI/ADR-RES) | GI50 (SR) |
| --- | --- | --- | --- | --- | --- | --- | --- | --- | --- | --- | --- | --- | --- | --- | --- | --- | --- | --- | --- | --- |
| COc1cc(/C=C/C(=O)CC(=O)/C=C/c2cc(OC)c(O)c(OC)c2)cc(OC)c1O | 12.6 µM (inactive) | 7.57 µM (inactive) | 22.8 µM (inactive) | 20.2 µM (inactive) | 7.74 µM (inactive) | 7.93 µM (inactive) | 5.71 µM (inactive) | 23.7 µM (inactive) | 10.3 µM (inactive) | 5.81 µM (inactive) | 8.26 µM (inactive) | 5.35 µM (inactive) | 9.86 µM (inactive) | 14.9 µM (inactive) | > 25 µM (inactive) | 13.8 µM (inactive) | 5.12 µM (inactive) | 3.01 µM (inactive) | > 25 µM (inactive) | 5.53 µM (inactive) |
| C=C1C(=O)OC2CC3(C)OC3CC/C(C)=C/C(OC(C)=O)C12 (centres undefined) | 16.9 µM (inactive) | 15.5 µM (inactive) | 15.4 µM (inactive) | 3.61 µM (inactive) | 18.3 µM (inactive) | 13.2 µM (inactive) | 5.56 µM (inactive) | 6.01 µM (inactive) | 8.51 µM (inactive) | 1.04 µM (active) | 17.3 µM (inactive) | 17.1 µM (inactive) | 2.13 µM (inactive) | 4.59 µM (inactive) | 13.6 µM (inactive) | 12.4 µM (inactive) | 4.05 µM (inactive) | 8.77 µM (inactive) | 11.3 µM (inactive) | 3.07 µM (inactive) |
| CC(=O)O[C@@H]1C[C@]2(C(=O)c3ccccc3)C(=O)C(=O)S[C@]12c1ccccc1 | 52.2 µM (inactive) | 38.5 µM (inactive) | 45.6 µM (inactive) | 55.7 µM (inactive) | 39.8 µM (inactive) | 39.5 µM (inactive) | 58.3 µM (inactive) | 56.1 µM (inactive) | > 100 µM (inactive) | 29.6 µM (inactive) | 55.8 µM (inactive) | 45.4 µM (inactive) | 30.4 µM (inactive) | 30 µM (inactive) | 42.8 µM (inactive) | 58.1 µM (inactive) | 46.6 µM (inactive) | 44 µM (inactive) | 41.6 µM (inactive) | 32.9 µM (inactive) |
| COc1cc(S(=O)(=O)Nc2ccc(-c3csc(/N=C\c4cccs4)n3)cc2)ccc1Cl | 28.1 µM (inactive) | 96.6 µM (inactive) | 53 µM (inactive) | 49.9 µM (inactive) | 32.6 µM (inactive) | 68.2 µM (inactive) | 35.9 µM (inactive) | > 100 µM (inactive) | > 100 µM (inactive) | 32.4 µM (inactive) | 78.7 µM (inactive) | 69.7 µM (inactive) | 29 µM (inactive) | 16.5 µM (inactive) | 45.5 µM (inactive) | 87.7 µM (inactive) | 37.4 µM (inactive) | 30.3 µM (inactive) | > 100 µM (inactive) | 15.7 µM (inactive) |
| COc1ccc2c3c1OC1c4[nH]c5ccccc5c4CC4(O)C(C2)N(C)CCC314 (centres undefined) | 51.9 µM (inactive) | 18.4 µM (inactive) | 22 µM (inactive) | 22.9 µM (inactive) | 32.4 µM (inactive) | 21.3 µM (inactive) | 17.4 µM (inactive) | 44.3 µM (inactive) | 71.6 µM (inactive) | 25.1 µM (inactive) | 59.2 µM (inactive) | 64.1 µM (inactive) | 19.3 µM (inactive) | 21.8 µM (inactive) | 13.6 µM (inactive) | 25.5 µM (inactive) | 32.3 µM (inactive) | 29.3 µM (inactive) | 63.4 µM (inactive) | 15.2 µM (inactive) |
| CC(=O)NN/C=N/C(C#N)=C(\N)C#N | > 100 µM (inactive) | > 100 µM (inactive) | > 100 µM (inactive) | > 100 µM (inactive) | > 100 µM (inactive) | > 100 µM (inactive) | > 100 µM (inactive) | > 100 µM (inactive) | > 100 µM (inactive) | > 100 µM (inactive) | > 100 µM (inactive) | > 100 µM (inactive) | > 100 µM (inactive) | > 100 µM (inactive) | > 100 µM (inactive) | > 100 µM (inactive) | > 100 µM (inactive) | > 100 µM (inactive) | > 100 µM (inactive) | > 100 µM (inactive) |
| COc1ccc(CCNC(=O)Cc2ccccc2CO)cc1OC | > 100 µM (inactive) | > 100 µM (inactive) | > 100 µM (inactive) | > 100 µM (inactive) | – | > 100 µM (inactive) | > 100 µM (inactive) | > 100 µM (inactive) | > 100 µM (inactive) | > 100 µM (inactive) | > 100 µM (inactive) | > 100 µM (inactive) | > 100 µM (inactive) | > 100 µM (inactive) | > 100 µM (inactive) | > 100 µM (inactive) | > 100 µM (inactive) | > 100 µM (inactive) | > 100 µM (inactive) | > 100 µM (inactive) |
